Laboratory results from article PMC7218127, “Cytotoxic and Optically Active Pyrisulfoxins From the Endophytic Streptomyces albolongus EA12432” (Frontiers in Chemistry, 2020).

Assays:
[1] = system: A431 epidermoid carcinoma cell line; assay: CellTiter-Glo (CTG) cytotoxic assay; conditions: Homo sapiens, A-431, 72 h, read-out: Cytotoxicity IC50, A431
[2] = system: BT474 breast cancer cell line; assay: CellTiter-Glo (CTG) cytotoxic assay; conditions: Homo sapiens, BT-474, 72 h, read-out: Cytotoxicity IC50, BT474
[3] = system: MDA-MB-468 breast cancer cell line; assay: CellTiter-Glo (CTG) cytotoxic assay; conditions: Homo sapiens, MDA-MB-468, 72 h, read-out: Cytotoxicity IC50, MDA-MB-468
[4] = system: U251 glioblastoma cell line; assay: CellTiter-Glo (CTG) cytotoxic assay; conditions: Homo sapiens, U-251, 72 h, read-out: Cytotoxicity IC50, U251
[5] = system: HCC1954 ductal carcinoma cell line; assay: CellTiter-Glo (CTG) cytotoxic assay; conditions: Homo sapiens, HCC1954, 72 h, read-out: Cytotoxicity IC50, HCC1954
[6] = system: MCF-7 breast cancer cell line; assay: CellTiter-Glo (CTG) cytotoxic assay; conditions: Homo sapiens, MCF7, 72 h, read-out: Cytotoxicity IC50, MCF-7
[7] = system: MKN-45 gastric cancer cell line; assay: CellTiter-Glo (CTG) cytotoxic assay; conditions: Homo sapiens, MKN-45, 72 h, read-out: Cytotoxicity IC50, MKN-45
[8] = system: Hep3B liver cancer cell line; assay: CellTiter-Glo (CTG) cytotoxic assay; conditions: Homo sapiens, 72 h, read-out: Cytotoxicity IC50, Hep3B
[9] = system: H1975 lung cancer cell line; assay: CellTiter-Glo (CTG) cytotoxic assay; conditions: Homo sapiens, NCI-H1975, 72 h, read-out: Cytotoxicity IC50, H1975
[10] = system: A673 rhabdomyoma cell line; assay: CellTiter-Glo (CTG) cytotoxic assay; conditions: Homo sapiens, A673, 72 h, read-out: Cytotoxicity IC50, A673
[11] = system: H2228 lung cancer cell line; assay: CellTiter-Glo (CTG) cytotoxic assay; conditions: Homo sapiens, NCI-H2228, 72 h, read-out: Cytotoxicity IC50, H2228
[12] = system: MDA-MB-231 breast cancer cell line; assay: CellTiter-Glo (CTG) cytotoxic assay; conditions: Homo sapiens, MDA-MB-231, 72 h, read-out: Cytotoxicity IC50, MDA-MB-231
[13] = system: U87 glioblastoma cell line; assay: CellTiter-Glo (CTG) cytotoxic assay; conditions: Homo sapiens, 72 h, read-out: Cytotoxicity IC50, U87
[14] = system: Karpass299 T cell lymphoma cell line; assay: CellTiter-Glo (CTG) cytotoxic assay; conditions: Homo sapiens, 72 h, read-out: Cytotoxicity IC50, Karpass299
HL-60 leukemia cell line = assay: CellTiter-Glo (CTG) cytotoxic assay; conditions: Homo sapiens, HL-60, 72 h, read-out: Cytotoxicity IC50, HL60
[15] = system: MV-4-11 leukemia cell line; assay: CellTiter-Glo (CTG) cytotoxic assay; conditions: Homo sapiens, MV4-11, 72 h, read-out: Cytotoxicity IC50, MV-4-11
[16] = system: N87 gastric carcinoma cell line; assay: CellTiter-Glo (CTG) cytotoxic assay; conditions: Homo sapiens, 72 h, read-out: Cytotoxicity IC50, N87
[17] = system: H1299 lung cancer cell line; assay: CellTiter-Glo (CTG) cytotoxic assay; conditions: Homo sapiens, NCI-H1299, 72 h, read-out: Cytotoxicity IC50, H1299
[18] = system: A549 lung cancer cell line; assay: CellTiter-Glo (CTG) cytotoxic assay; conditions: Homo sapiens, A549, 72 h, read-out: Cytotoxicity IC50, A549
K562 leukemia cell line = assay: CellTiter-Glo (CTG) cytotoxic assay; conditions: Homo sapiens, K562, 72 h, read-out: Cytotoxicity IC50, K562
[19] = system: HCT-116 human colon carcinoma cell line; assay: CellTiter-Glo (CTG) cytotoxic assay; conditions: HCT-116, 72 h, read-out: Cytotoxicity IC50, HCT-116
[20] = system: 143B bone osteosarcoma cell line; assay: CellTiter-Glo (CTG) cytotoxic assay; conditions: Homo sapiens, 72 h, read-out: Cytotoxicity IC50, 143B
[21] = system: B16F10 highly metastatic mouse melanoma cell line; assay: CellTiter-Glo (CTG) cytotoxic assay; conditions: B16-F10, 72 h, read-out: Cytotoxicity IC50, B16F10
[22] = system: SPC-A1 lung cancer cell line; assay: CellTiter-Glo (CTG) cytotoxic assay; conditions: Homo sapiens, SPCA1, 72 h, read-out: Cytotoxicity IC50, SPC-A1
[23] = system: HUCCT1 ductal carcinoma cell line; assay: CellTiter-Glo (CTG) cytotoxic assay; conditions: Homo sapiens, HuCCT-1, 72 h, read-out: Cytotoxicity IC50, HUCCT1
[24] = system: DU145 prostate cancer cell line; assay: CellTiter-Glo (CTG) cytotoxic assay; conditions: Homo sapiens, DU-145, 72 h, read-out: Cytotoxicity IC50, DU145
26 cancer cell lines = assay: CTG cytotoxic assay, summary over the panel; conditions: read-out: IC50 values against 26 cancer cell lines, range
[25] = CellTiter-Glo (CTG) cytotoxic assay, normal cells; conditions: human, L02 normal liver cells
[26] = CellTiter-Glo (CTG) cytotoxic assay, normal cells; conditions: human, HEK-293F cells
cancer cells = assay: Cytotoxicity (MTT, SRB, CTG), summary over all cancer cells; conditions: read-out: IC50 values against cancer cells, range
[27] = system: HCT-116 human colorectal cancer cell line; assay: SRB cytotoxicity assay; conditions: read-out: Cytotoxicity IC50, HCT-116; SRB method, 72 h (Table 5); NA = no activity
[28] = system: HT-29 human colorectal cancer cell line; assay: SRB cytotoxicity assay; conditions: read-out: Cytotoxicity IC50, HT-29; SRB method, 72 h (Table 5)
[29] = system: P6C human colorectal cancer cell line; assay: MTT cytotoxicity assay; conditions: read-out: Cytotoxicity IC50, P6C; MTT method, 72 h (Table 5)
[30] = system: BXPC-3 human pancreatic cancer cell line; assay: SRB cytotoxicity assay; conditions: read-out: Cytotoxicity IC50, BXPC-3; SRB method, 72 h (Table 5)
K562 cell line = assay: MTT cytotoxicity assay; conditions: read-out: Cytotoxicity IC50, K562; MTT method, 72 h (Table 5); NA = no activity
[31] = system: HCT-116, HT-29, P6C and BXPC-3 cell lines; assay: SRB/MTT cytotoxicity assays, summary over CRC and pancreatic lines; conditions: Homo sapiens, read-out: IC50 values against HCT-116, HT-29, P6C and BXPC-3, range
Jurkat cell line = assay: MTT cytotoxicity assay; conditions: read-out: Cytotoxicity IC50, Jurkat; MTT method, 72 h (Table 5)
[32] = system: MCF-7 human breast cancer cell line; assay: MTT cytotoxicity assay; conditions: read-out: Cytotoxicity IC50, MCF-7; MTT method, 72 h (Table 5); NA = no activity
[33] = system: other 26 cell lines (Table 4 without N87); assay: CTG cytotoxic assay, summary over the other cell lines of Table 4; conditions: read-out: IC50 against other 26 cell lines

SMILES | IC50 [1] [nM] | IC50 [2] [nM] | IC50 [3] [nM] | IC50 [4] [nM] | IC50 [5] [nM] | IC50 [6] [nM] | IC50 [7] [nM] | IC50 [8] [nM] | IC50 [9] [nM] | IC50 [10] [nM] | IC50 [11] [nM] | IC50 [12] [nM] | IC50 [13] [nM] | IC50 [14] [nM] | IC50 (HL-60 leukemia cell line) [nM] | IC50 [16] [nM] | IC50 at 72 h [25] [nM] | IC50 at 72 h [26] [nM] | IC50 (cancer cells) [nM] | IC50 [27] [nM] | further results
CC(=O)NCc1nc(-c2ccccn2)cc(O)c1[S+](C)[O-] (racemic) [(±)-2, N-[(4-hydroxy-5-methylsulfinyl-2,2′-bipyridin-6-yl)methyl] acetamide] | 4630 | 8240 | 1310 | 4790 | 2140 | 5780 | 4880 | 4420 | 2550 | 6900 | 8050 | 920 | 3670 | 3130 | 3180 | 7460 | > 100000 | > 100000 | 48 to 9710 | – | IC50 [15]: 9710 nM; IC50 [17]: 7380 nM; IC50 [18]: 4180 nM; IC50 (K562 leukemia cell line): 5920 nM; IC50 [19]: 2450 nM; IC50 [20]: 8390 nM; IC50 [21]: 7740 nM; IC50 [22]: 7830 nM; IC50 [23]: 7910 nM; IC50 [24]: 4510 nM; IC50 (26 cancer cell lines): 920 to 9710 nM
COc1cc(-c2ccccn2)nc(/C=N/O)c1[S+](C)[O-] (racemic) [(±)-3, pyrisulfoxin A] | – | – | – | – | – | – | – | – | – | – | – | – | – | – | – | – | – | – | 48 to 9710 | 730 | IC50 [28]: 830 nM; IC50 [29]: 3200 nM; IC50 [30]: 1600 nM; IC50 (K562 cell line): 13000 nM; IC50 [31]: 48 to 3200 nM
COc1cccc2c1C(=O)c1c(O)c3c(c(O)c1C2=O)C[C@@](O)(C(=O)CO)C[C@@H]3O[C@H]1C[C@H](N)[C@H](O)[C@H](C)O1 [Adriamycin, reference compound] | 170 | 1940 | > 100000 | 190 | 48 | 100 | 190 | 17600 | 91 | 130 | 97 | 180 | 120 | 390 | 210 | 120 | 96 | 50 | – | 210 | IC50 [28]: 160 nM; IC50 [29]: 650 nM; IC50 [30]: 32 nM; IC50 (K562 cell line): 250 nM; IC50 (Jurkat cell line): 440 nM; IC50 [32]: 860 nM; IC50 [15]: 160 nM; IC50 [17]: 490 nM; IC50 [18]: 99 nM; IC50 (K562 leukemia cell line): 18 nM; IC50 [19]: 100 nM; IC50 [20]: 95 nM; IC50 [21]: 15 nM; IC50 [22]: 190 nM; IC50 [23]: 51 nM; IC50 [24]: 48 nM
COc1cc(-c2ccccn2)nc([C@H]2NC(=O)c3ccccc3N2)c1SC [R(–)-14, R-Pyrisulfoxin F] | – | – | – | – | – | – | – | – | – | – | – | – | – | – | – | – | – | – | – | 14700 | –
COc1cc(-c2ccccn2)nc([C@@H]2NC(=O)c3ccccc3N2)c1SC [S(+)-14, S-Pyrisulfoxin F] | – | – | – | – | – | – | – | – | – | – | – | – | – | – | – | – | – | – | – | – | IC50 [32]: 10400 nM
COc1cc(-c2ccccn2)nc(CO)c1[S+](C)[O-] (stereo not shown) [compound 1, 4-methoxy-5-methylsulfinyl-2,2′-bipyridine-6-methanol] | – | – | – | – | – | – | – | – | – | – | – | – | – | – | – | 8090 | > 100000 | > 100000 | 48 to 9710 | – | IC50 [33]: > 100000 nM
